{
  "source": "paper PMC10017709",
  "about": "“Structural basis of selective cannabinoid CB2 receptor activation” (Nature Communications, 2023)",
  "key": {"hCB2R": {"molecular_target": "T1, hCB2R (Homo sapiens, UniProt P34972)", "T1 construct": "host or cells: CHO-K1 (CHOK1_hCB2bgal, PathHunter), membranes", "assay": "[3H]RO6957022 competition association assay", "assay_type": "binding", "details": "for percentage specific [3H]RO6957022 binding (competition association): individual replicates"}, "hCB1R WT": {"molecular_target": "hCB1R WT (Homo sapiens, UniProt P21554)", "sequence (P21554 whole entry)": "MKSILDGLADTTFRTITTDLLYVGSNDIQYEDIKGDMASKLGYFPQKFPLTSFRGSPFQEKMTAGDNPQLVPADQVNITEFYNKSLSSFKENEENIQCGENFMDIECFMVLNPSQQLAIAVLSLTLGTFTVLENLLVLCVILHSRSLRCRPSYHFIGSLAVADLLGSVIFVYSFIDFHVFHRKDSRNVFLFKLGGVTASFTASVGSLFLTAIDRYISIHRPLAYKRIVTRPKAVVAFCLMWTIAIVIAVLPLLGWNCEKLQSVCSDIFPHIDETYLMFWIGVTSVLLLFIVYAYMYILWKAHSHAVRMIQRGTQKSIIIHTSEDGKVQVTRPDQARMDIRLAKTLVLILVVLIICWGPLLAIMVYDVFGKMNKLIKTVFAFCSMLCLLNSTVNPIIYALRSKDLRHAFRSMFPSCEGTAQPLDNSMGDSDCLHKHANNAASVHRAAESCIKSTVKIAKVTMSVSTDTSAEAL", "assay": "[35S]GTPγS G protein activation assay, CB1R WT", "assay_type": "biochemical", "details": "CB1R WT"}, "CB2R-V261^6.51L": {"molecular_target": "CB2R-V261^6.51L (Homo sapiens, UniProt P34972, V261L)", "sequence (P34972 whole entry V261L)": "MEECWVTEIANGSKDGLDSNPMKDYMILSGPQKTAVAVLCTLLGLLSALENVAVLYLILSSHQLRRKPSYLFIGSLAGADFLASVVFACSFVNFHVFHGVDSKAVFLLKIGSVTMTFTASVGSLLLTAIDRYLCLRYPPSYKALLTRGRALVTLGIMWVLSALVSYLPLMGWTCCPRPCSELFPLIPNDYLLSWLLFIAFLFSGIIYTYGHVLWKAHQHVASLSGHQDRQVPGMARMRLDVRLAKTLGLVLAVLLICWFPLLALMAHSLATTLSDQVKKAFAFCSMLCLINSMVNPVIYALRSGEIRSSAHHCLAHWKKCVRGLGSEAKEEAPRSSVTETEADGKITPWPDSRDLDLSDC", "assay": "[35S]GTPγS assay, CB2R V261L mutant", "assay_type": "biochemical", "details": "for [35S]GTPγS binding: V2616.51L, individual replicates"}, "CB1R-L359^6.51V": {"molecular_target": "CB1R-L359^6.51V (Homo sapiens, UniProt P21554, L359V)", "sequence (P21554 whole entry L359V)": "as the sequence (P21554 whole entry) above, with L359V counted along it", "assay": "[35S]GTPγS assay, CB1R L359V mutant", "assay_type": "biochemical"}, "CB2R-F117^3.36A": {"molecular_target": "CB2R-F117^3.36A (Homo sapiens, UniProt P34972, F117A)", "sequence (P34972 whole entry F117A)": "as the sequence (P34972 whole entry V261L) above, with F117A, L261V counted along it", "assay": "[35S]GTPγS assay, CB2R F117A mutant", "assay_type": "biochemical"}, "CB2R-I110^3.29L": {"molecular_target": "CB2R-I110^3.29L (Homo sapiens, UniProt P34972, I110L)", "sequence (P34972 whole entry I110L)": "as the sequence (P34972 whole entry V261L) above, with I110L, L261V counted along it", "assay": "[35S]GTPγS assay, CB2R I110L mutant", "assay_type": "biochemical", "details": "for [35S]GTPγS binding: I1103.29L, individual replicates"}, "CB2R-Quadruple^TM1,7 [1]": {"molecular_target": "T2, CB2R-Quadruple^TM1,7 (Homo sapiens, UniProt P34972, C40S/K279T/K33Q/V36I)", "T2 sequence (P34972 whole entry K33Q/V36I/C40S/K279T)": "as the sequence (P34972 whole entry V261L) above, with K33Q, V36I, C40S, L261V, K279T counted along it", "assay": "[35S]GTPγS assay, CB2R quadruple mutant", "assay_type": "biochemical", "details": "for [35S]GTPγS binding: QuadrupleTM1,7, individual replicates", "description": "In short, transient HEK293T membrane homogenates (10 µg/well) were diluted in assay buffer (50 mM Tris-HCl (pH 7.4), 5 mM MgCl2, 150 mM NaCl, 1 mM EDTA, 0.05% BSA (w/v) and 1 mM DTT, freshly prepared every day) and were pretreated with 10 µg saponin and 1 µM GDP. For endocannabinoid samples, the membranes were additionally pretreated for 30 min with 50 µM PMSF before agonist addition. […] Basal receptor activity was determined in the presence of vehicle only (0.2% DMSO/acetonitrile). […] Filtration was performed, and filter-bound radioactivity was determined as described under [^3H]RO6957022 Competition Association Assays except for using ice-cold 50 mM Tris-HCl (pH 7.4), 5 mM MgCl2 buffer."}, "CB2R-Quadruple^TM1,7 [2]": {"molecular_target": "T2, CB2R-Quadruple^TM1,7", "assay": "[3H]CP55,940 displacement assay, CB2R quadruple mutant", "assay_type": "binding", "details": "for percentage specific [3H]CP55,940 binding: QuadrupleTM1,7, individual replicates"}, "[3]": {"details": "V261L mutant, <5 when curve fit not finished"}},
  "note": "“And” between values parts separate entries of the source, which are not always exact repeats. Identical values can stand only once.",
  "data": [
    {"smiles": "CC(C)CN1C(=O)CN(Cc2ccc(-c3ccc(F)c(CNC4CCOCC4)n3)cc2)C1=O", "note": "[LEI-102, 1-(4-(5-fluoro-6-(((tetrahydro-2H-pyran-4-yl)amino)methyl)pyridin-2-yl)benzyl)-3-isobutylimidazolidine-2,4-dione]", "values": [
      {"measurement": "Kd", "setting": "hCB2R; KD = koff/kon, read-out: Kinetic KD", "result": 16.5, "unit": "nM"},
      {"measurement": "residence time", "setting": "hCB2R; RT = 1/(60 ∙ koff)", "result": 16, "unit": "min"},
      {"measurement": "percentage specific [3H]RO6957022 binding (competition association)", "setting": "hCB2R; Time 1 min", "result": "5.83% and -3.44% and 7.40%"},
      {"measurement": "percentage specific [3H]RO6957022 binding (competition association)", "setting": "hCB2R; Time 3 min", "result": "23.25% and 21.50% and 9.87%"},
      {"measurement": "percentage specific [3H]RO6957022 binding (competition association)", "setting": "hCB2R; Time 5 min", "result": "29.56% and 33.35% and 22.10%"},
      {"measurement": "percentage specific [3H]RO6957022 binding (competition association)", "setting": "hCB2R; Time 7 min", "result": "39.12% and 26.72% and 31.06%"},
      {"measurement": "percentage specific [3H]RO6957022 binding (competition association)", "setting": "hCB2R; Time 10 min", "result": "41.53% and 33.11% and 35.03%"},
      {"measurement": "percentage specific [3H]RO6957022 binding (competition association)", "setting": "hCB2R; Time 20 min", "result": "47.20% and 49.02% and 32.99%"},
      {"measurement": "percentage specific [3H]RO6957022 binding (competition association)", "setting": "hCB2R; Time 30 min", "result": "52.67% and 57.37% and 51.93%"},
      {"measurement": "percentage specific [3H]RO6957022 binding (competition association)", "setting": "hCB2R; Time 45 min", "result": "51.61% and 58.35% and 49.36%"},
      {"measurement": "percentage specific [3H]RO6957022 binding (competition association)", "setting": "hCB2R; Time 60 min", "result": "51.74% and 74.63% and 45.92%"},
      {"measurement": "percentage specific [3H]RO6957022 binding (competition association)", "setting": "hCB2R; Time 90 min", "result": "53.57% and 66.52% and 52.04%"},
      {"measurement": "percentage specific [3H]RO6957022 binding (competition association)", "setting": "hCB2R; Time 120 min", "result": "61.01% and 70.76% and 73.93%"},
      {"measurement": "ET (engagement time)", "setting": "hCB2R; at 1 µM agonist, ET = 1/(kon ∙ 1 × 10-6)", "result": "16.0 ± 2.82", "unit": "s"},
      {"measurement": "Agonist-mediated activation", "setting": "hCB1R WT; 10 µM agonist", "result": "1.0 ± 0.1", "unit": "fold over its basal"},
      {"measurement": "G protein activation, fold over its basal", "setting": "hCB1R WT; individual replicates", "result": "0.954 fold over its basal and 1.145 fold over its basal and 0.987 fold over its basal"},
      {"measurement": "EC50", "setting": "CB2R-V261^6.51L; [3]", "result": 398, "unit": "nM"},
      {"measurement": "pEC50", "setting": "CB2R-V261^6.51L; [3]", "result": "no significant effect"},
      {"measurement": "Emax (%)", "setting": "CB2R-V261^6.51L; V261L mutant, at 10 µM compared to WT", "result": "8 ± 4", "unit": "%"},
      {"measurement": "[35S]GTPγS binding", "setting": "CB2R-V261^6.51L; log [ligand] (M) -5", "result": "10.29 percentage of WT and 13.28 percentage of WT and -0.20 percentage of WT"},
      {"measurement": "[35S]GTPγS binding", "setting": "CB2R-V261^6.51L; log [ligand] (M) -6", "result": "38.11 percentage of WT and 3.14 percentage of WT and 6.06 percentage of WT"},
      {"measurement": "[35S]GTPγS binding", "setting": "CB2R-V261^6.51L; log [ligand] (M) -7", "result": "1.50 percentage of WT and -10.33 percentage of WT and -12.90 percentage of WT"},
      {"measurement": "[35S]GTPγS binding", "setting": "CB2R-V261^6.51L; log [ligand] (M) -8", "result": "-5.39 percentage of WT and -14.91 percentage of WT and -5.93 percentage of WT"},
      {"measurement": "[35S]GTPγS binding", "setting": "CB2R-V261^6.51L; log [ligand] (M) -9", "result": "-6.94 percentage of WT and -6.08 percentage of WT and -10.10 percentage of WT"},
      {"measurement": "[35S]GTPγS binding", "setting": "CB2R-V261^6.51L; log [ligand] (M) -10", "result": "6.99 percentage of WT and -5.10 percentage of WT and -20.01 percentage of WT"},
      {"measurement": "Agonist-mediated activation", "setting": "CB1R-L359^6.51V; CB1R L359V, 10 µM agonist", "result": "1.1 ± 0.1", "unit": "fold over its basal"},
      {"measurement": "G protein activation, fold over its basal", "setting": "CB1R-L359^6.51V; CB1R L3596.51V, individual replicates", "result": "1.125 fold over its basal and 1.294 fold over its basal and 0.998 fold over its basal"},
      {"measurement": "Emax (%)", "setting": "CB2R-F117^3.36A; F117A mutant, at 10 µM compared to WT", "result": "11 ± 11", "unit": "%"},
      {"measurement": "[35S]GTPγS binding", "setting": "CB2R-F117^3.36A; F1173.36A, log [ligand] (M) -5, individual replicates", "result": "-10.74 percentage of WT and 22.02 percentage of WT and 22.63 percentage of WT"},
      {"measurement": "EC50", "setting": "CB2R-I110^3.29L; I110L mutant, HEK293T membranes", "result": 15.8, "unit": "nM"},
      {"measurement": "Emax (%)", "setting": "CB2R-I110^3.29L; I110L mutant, at 10 µM compared to WT", "result": "91 ± 3", "unit": "%"},
      {"measurement": "[35S]GTPγS binding", "setting": "CB2R-I110^3.29L; log [ligand] (M) -5", "result": "91.04 percentage of WT and 85.60 percentage of WT and 97.60 percentage of WT"},
      {"measurement": "[35S]GTPγS binding", "setting": "CB2R-I110^3.29L; log [ligand] (M) -6", "result": "71.11 percentage of WT and 90.00 percentage of WT and 68.00 percentage of WT"},
      {"measurement": "[35S]GTPγS binding", "setting": "CB2R-I110^3.29L; log [ligand] (M) -7", "result": "49.89 percentage of WT and 105.60 percentage of WT and 64.50 percentage of WT"},
      {"measurement": "[35S]GTPγS binding", "setting": "CB2R-I110^3.29L; log [ligand] (M) -8", "result": "38.52 percentage of WT and 44.70 percentage of WT and 17.20 percentage of WT"},
      {"measurement": "[35S]GTPγS binding", "setting": "CB2R-I110^3.29L; log [ligand] (M) -9", "result": "9.93 percentage of WT and -16.00 percentage of WT and -7.20 percentage of WT"},
      {"measurement": "[35S]GTPγS binding", "setting": "CB2R-I110^3.29L; log [ligand] (M) -10", "result": "-2.60 percentage of WT and -2.20 percentage of WT and -32.20 percentage of WT"},
      {"measurement": "EC50", "setting": "CB2R-Quadruple^TM1,7 [1]; Quadruple TM1,7 mutant, <5 when curve fit not finished", "result": 631, "unit": "nM"},
      {"measurement": "Emax (%)", "setting": "CB2R-Quadruple^TM1,7 [1]; Quadruple TM1,7 mutant, at 10 µM compared to WT", "result": "27 ± 5", "unit": "%"},
      {"measurement": "[35S]GTPγS binding", "setting": "CB2R-Quadruple^TM1,7 [1]; log [ligand] (M) -5", "result": "19.02 percentage of WT and 26.25 percentage of WT and 35.32 percentage of WT"},
      {"measurement": "[35S]GTPγS binding", "setting": "CB2R-Quadruple^TM1,7 [1]; log [ligand] (M) -6", "result": "18.24 percentage of WT and 27.33 percentage of WT and 15.57 percentage of WT"},
      {"measurement": "[35S]GTPγS binding", "setting": "CB2R-Quadruple^TM1,7 [1]; log [ligand] (M) -7", "result": "-20.33 percentage of WT and 5.34 percentage of WT"},
      {"measurement": "[35S]GTPγS binding", "setting": "CB2R-Quadruple^TM1,7 [1]; log [ligand] (M) -8", "result": "-17.90 percentage of WT and -15.60 percentage of WT and -7.82 percentage of WT"},
      {"measurement": "[35S]GTPγS binding", "setting": "CB2R-Quadruple^TM1,7 [1]; log [ligand] (M) -9", "result": "-5.85 percentage of WT and 6.13 percentage of WT and -3.78 percentage of WT"},
      {"measurement": "Ki", "setting": "CB2R-Quadruple^TM1,7 [2]; CB2R Quadruple TM1,7 mutant, <5 when curve fit not finished", "result": 158, "unit": "nM"},
      {"measurement": "percentage specific [3H]CP55,940 binding", "setting": "CB2R-Quadruple^TM1,7 [2]; log [ligand] (M) -5", "result": "5.19% and 45.81% and -26.38%"},
      {"measurement": "percentage specific [3H]CP55,940 binding", "setting": "CB2R-Quadruple^TM1,7 [2]; log [ligand] (M) -6", "result": "60.64% and 32.84% and -34.85%"},
      {"measurement": "percentage specific [3H]CP55,940 binding", "setting": "CB2R-Quadruple^TM1,7 [2]; log [ligand] (M) -7", "result": "75.38% and 92.54% and 80.13%"}
    ]}
  ]
}
